Results as given in patent US8609708B2 (Human BioMolecular Research Institute, priority 2003, dated 2013).
Like-named read-outs stand apart in the source and are kept apart here.

What was measured:
[1] = target: Microsomal Human CYP2A6 (Homo sapiens (Human), UniProt P11509); assay: Microsomal human CYP2A6-mediated nicotine oxidase activity
Method: For each determination, cold microsomes (of predetermined CYP2A6 activity) was added to the NADPH-generating system containing 50 mM Tris (pH=7.4) and DETAPAC (to prevent metal-catalyzed autooxidation) and inhibitor. Because rat liver cytosol has little CYP2A6 activity and high levels of aldehyde oxidase, 0.2 mg/incubation was used to quantitatively convert the nicotine iminium ion to cotinine. […] For initial evaluation of a large number of samples, [^3]H-nicotine was used in a TLC/radiometric format. […] Quantification of scrapped bands was by scintillation counting.

[2] = Mouse liver microsome stability assay; conditions: mouse liver microsomes; for half-life at 40 μM: mouse, pH 7.4; for MLM t1/2: 40 μM test compound
Method: The residue was reconstituted in methanol (200 μL), centrifuged at 13,000 rpm for 5 min and the supernatant was analyzed by high-performance liquid chromatography with an Axxi-chrom (straight-phase) silica column (4.6 mm×250 mm, 5 μm) or with a Supelco (reverse-phase) HS F5 pentafluorophenyl column (4.6 mm×250 mm, 5 μm).

[3] = Human liver microsome stability assay; conditions: human liver microsomes; for half-life at 40 μM: human, pH 7.4
[4] = target: CYP3A4 (Homo sapiens (Human), UniProt P08684); assay: CYP3A4 inhibition assay (testosterone 6-hydroxylation)
Sequence of CYP3A4 (P08684 whole entry): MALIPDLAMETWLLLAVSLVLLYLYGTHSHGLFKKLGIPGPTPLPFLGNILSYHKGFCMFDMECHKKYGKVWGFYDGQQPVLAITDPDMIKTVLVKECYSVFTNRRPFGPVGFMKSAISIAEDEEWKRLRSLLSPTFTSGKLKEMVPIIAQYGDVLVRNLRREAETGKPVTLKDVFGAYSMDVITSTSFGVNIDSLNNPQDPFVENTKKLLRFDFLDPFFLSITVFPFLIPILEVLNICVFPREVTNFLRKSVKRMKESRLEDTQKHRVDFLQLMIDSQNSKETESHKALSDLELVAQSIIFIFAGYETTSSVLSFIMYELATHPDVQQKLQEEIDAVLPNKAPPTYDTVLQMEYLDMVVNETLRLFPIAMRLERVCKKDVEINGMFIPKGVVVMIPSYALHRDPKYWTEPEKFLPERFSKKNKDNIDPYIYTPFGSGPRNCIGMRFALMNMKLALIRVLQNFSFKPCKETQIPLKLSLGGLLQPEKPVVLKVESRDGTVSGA

[5] = target: CYP3A4 relative to CYP2A6 (Homo sapiens (Human), UniProt P08684); assay: in vitro; conditions: human; for selectivity ratio at 30 min: pH 7.5
Sequence of CYP3A4 relative to CYP2A6 (P08684 whole entry): as above

[6] = target: T1, human CYP2A6 (Homo sapiens (Human), UniProt P11509); assay: biochemical
T1 sequence (P11509 whole entry): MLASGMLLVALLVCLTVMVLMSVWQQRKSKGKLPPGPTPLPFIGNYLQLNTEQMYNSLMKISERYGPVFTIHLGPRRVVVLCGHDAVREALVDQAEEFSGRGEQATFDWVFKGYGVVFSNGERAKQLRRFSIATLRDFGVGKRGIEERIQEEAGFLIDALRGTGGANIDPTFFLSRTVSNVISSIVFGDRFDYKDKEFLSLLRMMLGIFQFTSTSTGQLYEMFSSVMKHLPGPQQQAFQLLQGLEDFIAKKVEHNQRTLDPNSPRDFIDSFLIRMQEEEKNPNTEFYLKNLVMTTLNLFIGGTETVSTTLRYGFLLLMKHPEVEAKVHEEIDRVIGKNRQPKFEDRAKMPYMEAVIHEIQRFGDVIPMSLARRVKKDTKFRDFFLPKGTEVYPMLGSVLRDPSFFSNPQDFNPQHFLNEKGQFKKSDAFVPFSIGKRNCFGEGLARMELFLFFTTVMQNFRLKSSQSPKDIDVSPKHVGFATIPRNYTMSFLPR

[7] = target: Ach binding protein (AchBP) (Lymnaea stagnalis (Great pond snail) (Helix stagnalis), UniProt P58154); conditions: for binding to the AchBP (in words): fluorescence quenching; for AchBP: intrinsic fluorescence quenching, 20 nM AchBP
Sequence of Ach binding protein (AchBP) (P58154 20-229 limits assumed): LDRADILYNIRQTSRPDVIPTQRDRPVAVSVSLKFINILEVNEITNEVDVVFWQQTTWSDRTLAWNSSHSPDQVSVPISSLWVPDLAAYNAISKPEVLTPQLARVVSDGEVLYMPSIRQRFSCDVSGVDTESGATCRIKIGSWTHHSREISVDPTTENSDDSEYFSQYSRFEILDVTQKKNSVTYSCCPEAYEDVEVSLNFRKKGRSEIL
Source text: To examine the degree of interaction with the nicotinic acetylcholine receptor, we examined the binding interaction of the synthetic inhibitors with the Ach binding protein (AchBP) from the fresh water snail (Table 3).

[8] = target: T1, human CYP2A6; assay: CYP2A6 mediated coumarin 7-hydroxylation inhibition
[9] = target: CYP2E1 (Homo sapiens (Human), UniProt P05181); assay: CYP2E1 Vivid blue substrate O-dealkylation inhibition; format: biochemical
Sequence of CYP2E1 (P05181 whole entry): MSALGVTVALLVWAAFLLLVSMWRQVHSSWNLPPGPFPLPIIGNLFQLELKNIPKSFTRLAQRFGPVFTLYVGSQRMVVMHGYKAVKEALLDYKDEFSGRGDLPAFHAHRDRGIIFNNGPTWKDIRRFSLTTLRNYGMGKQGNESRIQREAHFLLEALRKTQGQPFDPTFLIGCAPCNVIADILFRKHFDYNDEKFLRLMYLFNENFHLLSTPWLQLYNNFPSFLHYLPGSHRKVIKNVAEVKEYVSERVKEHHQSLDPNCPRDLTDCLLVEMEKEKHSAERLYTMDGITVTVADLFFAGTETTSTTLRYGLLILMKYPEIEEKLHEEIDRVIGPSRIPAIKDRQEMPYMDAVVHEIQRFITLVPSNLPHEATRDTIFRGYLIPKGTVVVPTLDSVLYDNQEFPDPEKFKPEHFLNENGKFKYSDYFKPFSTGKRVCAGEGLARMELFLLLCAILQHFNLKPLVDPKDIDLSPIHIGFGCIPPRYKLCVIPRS

[10] = target: CYP2B6 (Homo sapiens (Human), UniProt P20813); assay: CYP2B6 Vivid blue substrate O-dealkylation inhibition; format: biochemical
Sequence of CYP2B6 (P20813 whole entry): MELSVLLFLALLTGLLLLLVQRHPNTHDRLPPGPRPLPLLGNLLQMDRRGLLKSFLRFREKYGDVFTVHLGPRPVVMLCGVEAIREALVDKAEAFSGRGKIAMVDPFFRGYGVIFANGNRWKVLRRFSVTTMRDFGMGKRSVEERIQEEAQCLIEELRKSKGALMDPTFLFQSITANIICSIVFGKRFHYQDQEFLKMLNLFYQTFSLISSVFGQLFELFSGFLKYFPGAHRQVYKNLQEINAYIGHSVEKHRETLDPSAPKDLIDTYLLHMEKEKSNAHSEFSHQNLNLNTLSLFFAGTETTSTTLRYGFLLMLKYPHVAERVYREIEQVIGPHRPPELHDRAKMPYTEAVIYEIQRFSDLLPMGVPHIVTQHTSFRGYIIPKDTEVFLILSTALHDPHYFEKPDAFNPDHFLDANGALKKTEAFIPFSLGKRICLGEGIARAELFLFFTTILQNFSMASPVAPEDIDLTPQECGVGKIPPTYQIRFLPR

[11] = target: CYP2C9 (Homo sapiens (Human), UniProt P11712); assay: CYP2C9 Vivid blue substrate O-dealkylation inhibition; format: biochemical
Sequence of CYP2C9 (P11712 whole entry): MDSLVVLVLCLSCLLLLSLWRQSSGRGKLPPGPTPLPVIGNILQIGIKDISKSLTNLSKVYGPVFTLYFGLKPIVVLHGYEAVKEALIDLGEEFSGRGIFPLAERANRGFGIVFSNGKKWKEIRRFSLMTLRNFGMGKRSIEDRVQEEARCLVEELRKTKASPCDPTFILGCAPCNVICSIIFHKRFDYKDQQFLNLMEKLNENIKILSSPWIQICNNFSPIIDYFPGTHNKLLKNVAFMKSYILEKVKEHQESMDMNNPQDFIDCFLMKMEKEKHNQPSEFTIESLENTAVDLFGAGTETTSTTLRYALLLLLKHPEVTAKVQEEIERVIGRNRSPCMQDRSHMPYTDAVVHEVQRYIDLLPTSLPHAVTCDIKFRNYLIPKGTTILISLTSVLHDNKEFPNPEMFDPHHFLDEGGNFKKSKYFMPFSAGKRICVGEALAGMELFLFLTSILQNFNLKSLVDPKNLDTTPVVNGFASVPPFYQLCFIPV

[12] = target: CYP2C19 (Homo sapiens (Human), UniProt P33261); assay: CYP2C19 Vivid blue substrate O-dealkylation inhibition; format: biochemical
Sequence of CYP2C19 (P33261 whole entry): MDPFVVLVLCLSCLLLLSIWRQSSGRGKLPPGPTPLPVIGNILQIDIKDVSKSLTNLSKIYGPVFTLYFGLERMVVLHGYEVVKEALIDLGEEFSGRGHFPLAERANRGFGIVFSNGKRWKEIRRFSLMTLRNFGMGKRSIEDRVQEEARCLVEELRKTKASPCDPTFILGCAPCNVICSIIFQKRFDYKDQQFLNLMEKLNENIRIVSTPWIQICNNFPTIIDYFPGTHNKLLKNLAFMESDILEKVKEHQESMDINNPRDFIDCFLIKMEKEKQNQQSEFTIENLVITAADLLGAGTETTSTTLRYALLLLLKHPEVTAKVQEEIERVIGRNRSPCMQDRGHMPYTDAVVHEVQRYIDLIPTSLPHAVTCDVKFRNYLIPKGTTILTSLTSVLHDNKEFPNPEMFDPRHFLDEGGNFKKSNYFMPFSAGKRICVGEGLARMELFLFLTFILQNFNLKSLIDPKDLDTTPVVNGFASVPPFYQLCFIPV

[13] = target: CYP2D6 (Homo sapiens (Human), UniProt P10635); assay: CYP2D6 Vivid blue substrate O-dealkylation inhibition; format: biochemical
Sequence of CYP2D6 (P10635 whole entry): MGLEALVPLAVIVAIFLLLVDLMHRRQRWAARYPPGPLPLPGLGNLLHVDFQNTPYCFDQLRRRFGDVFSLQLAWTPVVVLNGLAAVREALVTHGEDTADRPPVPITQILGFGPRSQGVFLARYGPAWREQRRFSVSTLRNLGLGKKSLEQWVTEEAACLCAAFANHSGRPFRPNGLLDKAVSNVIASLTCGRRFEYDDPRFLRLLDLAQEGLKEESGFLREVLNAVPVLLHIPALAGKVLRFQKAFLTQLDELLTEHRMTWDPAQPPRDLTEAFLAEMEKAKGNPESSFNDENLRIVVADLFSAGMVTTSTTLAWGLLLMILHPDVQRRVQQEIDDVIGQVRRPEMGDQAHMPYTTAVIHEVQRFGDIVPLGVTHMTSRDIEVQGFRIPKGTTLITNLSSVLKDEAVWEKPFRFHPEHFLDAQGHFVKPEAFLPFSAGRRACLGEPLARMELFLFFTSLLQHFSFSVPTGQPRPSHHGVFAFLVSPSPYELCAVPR

[14] = target: T1, human CYP2A6
[15] = target: T2, P450 2A6dH (Homo sapiens (Human), UniProt P11509, INS494HHHH)
T2 sequence (P11509 other isoform, or with tags, fused parts or gaps 1-28 replaced by MAKKTS/ins HHHH behind 494): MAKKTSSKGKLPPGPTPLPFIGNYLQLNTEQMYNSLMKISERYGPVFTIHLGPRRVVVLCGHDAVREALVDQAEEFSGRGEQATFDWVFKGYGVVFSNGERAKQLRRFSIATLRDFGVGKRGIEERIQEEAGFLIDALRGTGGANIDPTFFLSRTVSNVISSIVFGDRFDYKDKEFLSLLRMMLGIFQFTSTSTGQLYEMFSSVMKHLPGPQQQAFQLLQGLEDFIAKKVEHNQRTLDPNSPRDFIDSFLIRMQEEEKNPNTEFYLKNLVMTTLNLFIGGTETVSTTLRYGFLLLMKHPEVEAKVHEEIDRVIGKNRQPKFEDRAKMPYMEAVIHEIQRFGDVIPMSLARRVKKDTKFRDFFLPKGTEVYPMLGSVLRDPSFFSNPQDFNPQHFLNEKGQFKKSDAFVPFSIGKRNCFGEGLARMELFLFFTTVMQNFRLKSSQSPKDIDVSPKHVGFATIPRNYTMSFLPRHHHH
Method: (§1) Subsequently, test compound (in 100% ethanol, 10 μM) was added to both the cuvettes. The maximal ethanol concentration used was 2%. The difference spectra were obtained after the system reached equilibrium (3 min). All spectra were recorded at 25° C.

[16] = target: T3, CYP2A13 (Homo sapiens (Human), UniProt Q16696); assay: in vitro
T3 sequence (Q16696 whole entry, the tested form may be a part): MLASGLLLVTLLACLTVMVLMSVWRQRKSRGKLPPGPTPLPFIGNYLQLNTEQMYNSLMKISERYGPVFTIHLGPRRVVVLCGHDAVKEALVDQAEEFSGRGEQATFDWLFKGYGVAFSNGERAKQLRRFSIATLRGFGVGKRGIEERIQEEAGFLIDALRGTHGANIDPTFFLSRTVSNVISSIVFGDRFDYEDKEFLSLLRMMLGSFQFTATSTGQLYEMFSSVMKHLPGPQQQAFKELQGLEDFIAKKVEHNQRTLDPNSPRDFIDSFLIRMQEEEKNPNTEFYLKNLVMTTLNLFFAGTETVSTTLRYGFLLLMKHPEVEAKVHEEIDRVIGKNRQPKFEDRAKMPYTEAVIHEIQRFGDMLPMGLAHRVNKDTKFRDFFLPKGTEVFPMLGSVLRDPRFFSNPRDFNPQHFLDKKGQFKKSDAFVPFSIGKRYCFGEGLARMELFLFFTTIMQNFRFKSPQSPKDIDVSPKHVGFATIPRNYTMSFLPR

[17] = target: T2, P450 2A6dH; assay: Difference spectra of test compounds with N-terminal truncated CYP2A6; conditions: for λmax / λmin: difference spectrum; for binding type: difference spectrum with truncated CYP2A6
Method: as §1

[18] = target: mouse CYP2A5 (Mus musculus (Mouse), UniProt P20852); assay: Inhibition of mouse CYP2A5; format: biochemical; conditions: read-out: IC50 mCYP2A5
[19] = target: T3, CYP2A13; assay: Inhibition of human CYP2A13; conditions: for inhibition at 1 µM: human
[20] = target: CYP2E1 relative to CYP2A6 (Homo sapiens (Human), UniProt P05181); assay: CYP2E1 Vivid blue substrate O-dealkylation inhibition; format: biochemical; conditions: human, recombinant CYP2E1 BACULOSOMES, pH 8, probe Vivid blue substrate (10 μM), O-dealkylation; read-out: 2E1/2A6 selectivity ratio (IC50 CYPX/IC50 CYP2A6)
Sequence of CYP2E1 relative to CYP2A6 (P05181 whole entry): as the sequence (P05181 whole entry) above

[21] = target: CYP2B6 relative to CYP2A6 (Homo sapiens (Human), UniProt P20813); assay: CYP2B6 Vivid blue substrate O-dealkylation inhibition; format: biochemical; conditions: human, recombinant CYP2B6 BACULOSOMES, pH 8, probe Vivid blue substrate (5 μM), O-dealkylation; read-out: 2B6/2A6 selectivity ratio (IC50 CYPX/IC50 CYP2A6)
Sequence of CYP2B6 relative to CYP2A6 (P20813 whole entry): as the sequence (P20813 whole entry) above

[22] = target: CYP2C9 relative to CYP2A6 (Homo sapiens (Human), UniProt P11712); assay: CYP2C9 Vivid blue substrate O-dealkylation inhibition; format: biochemical; conditions: human, recombinant CYP2C9 BACULOSOMES, pH 8, probe Vivid blue substrate (10 μM), O-dealkylation; read-out: 2C9/2A6 selectivity ratio (IC50 CYPX/IC50 CYP2A6)
[23] = target: CYP2C19 relative to CYP2A6 (Homo sapiens (Human), UniProt P33261); assay: CYP2C19 Vivid blue substrate O-dealkylation inhibition; format: biochemical; conditions: human, recombinant CYP2C19 BACULOSOMES, pH 8, probe Vivid blue substrate (10 μM), O-dealkylation; read-out: 2C19/2A6 selectivity ratio (IC50 CYPX/IC50 CYP2A6)
[24] = target: CYP2D6 relative to CYP2A6 (Homo sapiens (Human), UniProt P10635); assay: CYP2D6 Vivid blue substrate O-dealkylation inhibition; format: biochemical; conditions: human, recombinant CYP2D6 BACULOSOMES, pH 8, probe Vivid blue substrate (10 μM), O-dealkylation; read-out: 2D6/2A6 selectivity ratio (IC50 CYPX/IC50 CYP2A6)
Sequence of CYP2D6 relative to CYP2A6 (P10635 whole entry): as the sequence (P10635 whole entry) above

[25] = read-out: CYP2A6 IC50, coumarin 7-hydroxylation
[26] = Table 4, unit inferred, read-out: 2E1 IC50 ± SD
[27] = Table 4, unit inferred, read-out: 2B6 IC50 ± SD
[28] = Table 4, unit inferred, read-out: 2C9 IC50 ± SD
[29] = Table 4, unit inferred, read-out: 2C19 IC50 ± SD
[30] = Table 4, unit inferred, read-out: 2D6 IC50 ± SD
[31] = read-out: 2A6 IC50 ± SD, Table 4, unit not given (same data in Table 1 in μM)

Sequence of Microsomal Human CYP2A6 (P11509 whole entry): as the sequence (P11509 whole entry) above

BrCC1CCC(c2cccnc2)O1 (stereo not drawn) [Compound 32]
IC50 [1]: 0.36 ± 0.18 µM

Cc1ccsc1-c1cccnc1 [Compound 4]
half-life at 40 μM [2]: 41 min
half-life at 40 μM [3]: 32 min

CN1CCCC1c1cccnc1 (stereo not drawn) [Compound 54]
IC50 [4]: 142 ± 15.7 µM
selectivity ratio ([5]; pH 7.5, Selectivity Ratio: IC50 (Inhibition of CYP3A4)/IC50 (Inhibition of CYP2A6)): 5
IC50 [6]: 26.3 ± 3.4 µM

O/N=C/c1ccc(-c2cccnc2)o1 [Compound 39]
IC50 ([4]; human, pH 7.5): > 400 µM
IC50 [6]: 9.75 ± 0.91 µM

OCC1CCC(c2cccnc2)O1 (stereo not drawn) [Compound 69]
binding to the AchBP (in words) [7]: non-binders
AchBP [7]: −
IC50 [8, 25]: 61.4 ± 17.7 µM

NCc1ccc(-c2cccnc2)o1 [Compound 2a]
IC50 [4]: 47.1 ± 18.1 µM
2E1/2A6 selectivity ratio (IC50 CYPX/IC50 CYP2A6) [9]: 637
IC50 [9, 26]: 172 ± 52 µM
2B6/2A6 selectivity ratio (IC50 CYPX/IC50 CYP2A6) [10]: 707
IC50 [10, 27]: 191 ± 24 µM
IC50 [11, 28]: 11.7 ± 2.2 µM
IC50 [12, 29]: 22 ± 1.6 µM
2D6/2A6 selectivity ratio (IC50 CYPX/IC50 CYP2A6) [13]: 42
IC50 [13, 30]: 11.3 ± 2.6 µM
IC50 [14]: 0.27 ± 0.02 µM
binding type [15]: Type II
λmax [15]: 428 nm
λmin [15]: 409 nm
half-life at 40 μM [2]: 37 min
half-life at 40 μM [3]: 37 min

CNCC#Cc1cccnc1 [TD-IV-091 41]
inhibition at 1 µM [16]: 2%

CNCc1ccc(-c2cccnc2)s1 [Compound 1b]
IC50 [4]: > 400 µM
IC50 [9, 26]: > 400 µM
IC50 [10, 27]: > 400 µM
IC50 [11, 28]: 67.7 ± 3.7 µM
IC50 [12, 29]: 59.8 ± 6.5 µM
IC50 [13, 30]: 113 ± 19 µM
MLM t1/2 [2]: Stable^a
half-life at 40 μM [3]: 96 min
IC50 [8, 31]: 1.1 ± 0.13 µM
λmax [17]: 430 nm
λmin [17]: 410 nm
binding type [17]: Type II

CNCc1ccc(-c2cccnc2)s1 [TD-IV-073 30]
IC50 [18]: 0.9 µM
inhibition at 1 µM [19]: 17%
IC50 [8, 25]: 1.1 ± 0.13 µM

CN1CCCC1c1cccnc1 (stereo not drawn) [Compound 54, Nicotine]
Ki [6]: 4.4 ± 0.6 µM

CC(=O)SCc1ccc(-c2cccnc2)o1 [TD-V-099]
IC50 [6]: 1.8 ± 0.3 µM
inhibition at 1 µM [19]: 13%

Cc1ccsc1-c1cccnc1 [TD-II-025]
IC50 [18]: 0.3 µM
IC50 [19]: ~1 µM
inhibition at 1 µM [19]: 51%

CNCc1ccc(-c2cccnc2)o1 [Compound 2b]
IC50 [4]: > 400 µM
selectivity ratio at 30 min [5]: > 250
IC50 [9, 26]: > 400 µM
selectivity ratio at 40 min [20]: > 250
IC50 [10, 27]: 358 ± 22 µM
selectivity ratio at 40 min [21]: 224
IC50 [11, 28]: 76.1 ± 9.1 µM
selectivity ratio at 40 min [22]: 48
IC50 [12, 29]: 30.6 ± 4.1 µM
selectivity ratio at 40 min [23]: 19
IC50 [13, 30]: 90.6 ± 7.8 µM
selectivity ratio at 40 min [24]: 57
MLM t1/2 [2]: Stable^a
half-life at 40 μM [3]: 66 min
IC50 [8, 31]: 1.6 ± 0.34 µM
λmax [17]: 431 nm
λmin [17]: 411 nm
binding type [17]: Type II

NCC1CCC(c2cccnc2)O1 (racemic) [Compound 38]
IC50 ([4]; human, microsomes, pH 7.5): 77.5 ± 14.6 µM
Selectivity ratio (IC50 CYPX/IC50 CYP2A6) 3A4/2A6 ([4]; human, pH 7.5): 21
Selectivity ratio (IC50 CYPX/IC50 CYP2A6) 2E1/2A6 ([9]; human CYP2E1 versus human CYP2A6): 21
IC50 ([9]; read-out: IC50 ± SD 2E1, insect cell microsomes expressing CYP2E1, 0.2M potassium phosphate buffer, mean of at least 3 determinations ± SD): 77.5 ± 14.6 µM
Selectivity ratio (IC50 CYPX/IC50 CYP2A6) 2B6/2A6 ([10]; human CYP2B6 versus human CYP2A6): 69
IC50 ([10]; read-out: IC50 ± SD 2B6, insect cell microsomes expressing CYP2B6, 0.2M potassium phosphate buffer, mean of at least 3 determinations ± SD): 256 ± 29 µM
Selectivity ratio (IC50 CYPX/IC50 CYP2A6) 2C9/2A6 ([11]; human CYP2C9 versus human CYP2A6): 56
IC50 ([11]; read-out: IC50 ± SD 2C9, insect cell microsomes expressing CYP2C9, 0.2M potassium phosphate buffer, mean of at least 3 determinations ± SD): 208 ± 21 µM
Selectivity ratio (IC50 CYPX/IC50 CYP2A6) 2C19/2A6 ([12]; human CYP2C19 versus human CYP2A6): 62
IC50 ([12]; read-out: IC50 ± SD 2C19, insect cell microsomes expressing CYP2C19, 0.2M potassium phosphate buffer, mean of at least 3 determinations ± SD): 233 ± 21 µM
Selectivity ratio (IC50 CYPX/IC50 CYP2A6) 2D6/2A6 ([13]; human CYP2D6 versus human CYP2A6): 53
IC50 ([13]; read-out: IC50 ± SD 2D6, insect cell microsomes expressing CYP2D6, 0.2M potassium phosphate buffer, mean of at least 3 determinations ± SD): 197 ± 21 µM
IC50 [1]: 5.21 ± 1.68 µM
binding to the AchBP (in words) [7]: modest binding avidity
AchBP [7]: +
CYP2A6 inhibition (in words) [14]: significantly diminished

CN(C)Cc1ccc(-c2cccnc2)s1 [Compound 1c]
IC50 [4]: 219 ± 23 µM
selectivity ratio at 30 min [5]: 1.6
IC50 [9, 26]: > 400 µM
selectivity ratio at 40 min [20]: > 3
IC50 [10, 27]: > 400 µM
selectivity ratio at 40 min [21]: > 3
IC50 [11, 28]: 206 ± 23 µM
selectivity ratio at 40 min [22]: 1.5
IC50 [12, 29]: 106 ± 18 µM
selectivity ratio at 40 min [23]: 0.8
IC50 [13, 30]: 28.7 ± 4.1 µM
selectivity ratio at 40 min [24]: 0.2
half-life at 40 μM [2]: 343 min
HLM t1/2 ([3]; 40 μM test compound): Stable^a
IC50 [8, 31]: 133 ± 21 µM
λmax [17]: 428 nm
λmin [17]: 411 nm
binding type [17]: Type II

O/N=C/c1ccc(-c2cccnc2)o1 [TD-II-065 ESP trans isomer]
IC50 ([14]; human, pH 7.5): 4.24 ± 0.49 µM
inhibition at 1 µM [16]: 41%

CCC1CCC(c2cccnc2)O1 (stereo not drawn) [Compound 44]
IC50 [1]: 0.02 ± 0.02 µM
inhibition of microsomal nicotine oxidase (in words) [1]: quite potent
IC50 [8, 25]: 13.6 ± 3.48 µM
